Assay: Stability against photobleaching of free CANIR and NIR fluorescent nanoparticles
Format: physicochemical
Conditions: illuminated continuously with a Xenon flash lamp for 20 minutes; λex 800 nm, λem 830 nm; intensity normalized
Procedure: Photobleaching is the irreversible light-induced destruction of the fluorophore, affected by factors such as oxygen, oxidizing or reducing agents, temperature, exposure time and illumination levels. For photobleaching experiments, the samples were diluted to 0.05M and λex was set at 800 nm and λem at 830 nm. Each of the samples was illuminated continuously, and fluorescence intensity was measured over a period of 20 minutes. The intensity values were normalized.
Photobleaching experiments were performed for the free CANIR dye and the CANIR-HSA nanoparticles, in order to examine their photostabillity. For the photobleaching experiments, the samples were diluted to 0.05M and λex was set at 800 nm and λem at 830 nm. Each of the samples was illuminated continuously, and fluorescence intensity was measured over a period of 20 minutes. Intensity values were normalized. […] The encapsulation of the dye probably protects the dye against reactive oxygen species thereby reducing the photobleaching.
FIG. 2 depicts the photostability of the CANIR-HSA nanoparticles (A) and free CANIR (B) as a function of time. Samples of CANIR containing HSA nanoparticles and free CANIR were illuminated with a Xenon flash lamp for 20 minutes as described above.

fluorescence intensity during illumination (photostability): decreases significantly
Compound: CC1(C)C(=CC=C2CCCC(C=CC3=[N+](CCCCS(=O)(=O)[O-])c4ccccc4C3(C)C)=C2Sc2ccc(C(=O)O)cc2)N(CCCCS(=O)(=O)[O-])c2ccccc21.[Na+] [free CANIR]
